# Experimental data from US20250359548A1, “METHODS OF IMPROVING STRESS TOLERANCE, GROWTH AND YIELD IN PLANTS” (Valent BioSciences LLC, priority 2020, published 2025).
# How the values were obtained:
# Format in all cases: in vivo
# Apogee wheat [1] = assay: Example 3: grain yield in Apogee wheat under well-watered conditions, two sprays
# Description: (§1) To determine if the mixtures provided unexpected results, the observed combined efficacy (“OCE”) was divided by the expected combined efficacy (“ECE”) to give an OCE/ECE ratio wherein the expected ECE is calculated by a variation of the Abbott method:
# (§2) [formula] • wherein ECE is the expected combined efficacy and in which X is the control efficacy and A and B are the efficacy provided by the single active ingredients. If the ratio between the OCE of the mixture and the ECE of the mixture is greater than 1, then greater than expected interactions are present in the mixture. (Gisi, The American Phytopathological Society, 86:11, 1273-1279, 1996).
# 32 pots of Apogee wheat were grown in a greenhouse under ideal growing conditions. Specifically, wheat was planted in ProMix® growth media and grown for about seven weeks in a growth cabinet at 24/18° C. day/night temperature under a 16/8 hour light/dark photoperiod. Next, spray applications of 0.025% v/v Latron B-1956® in water, 30 ppm ABA, 10 ppm CPPU, and a mixture of 30 ppm ABA and 10 ppm CPPU (n=8) were made using a tank sprayer at Feekes stage 11.0. A second chemical spray application was made seven days after first spray. Plants were then grown under ideal conditions for an additional 5-6 weeks until they reached physiological maturity. Plants were then destructively harvested and measured for spike weight, grain yield, yield per spike and total above ground biomass.
# Apogee wheat [2] = assay: Example 4: grain yield in Apogee wheat under water stress, dose combinations; settings: drought stress
# Description: as §1, §2
# 72 pots of Apogee wheat were grown in a greenhouse under ideal growing conditions. Specifically, wheat was planted in ProMix® growth media and grown for about seven weeks in a growth cabinet at 24/18° C. day/night temperature under a 16/8 hour light/dark photoperiod. Next, spray applications of 0.025% v/v Latron B-1956® in water, 10 ppm ABA, 30 ppm ABA, 5 ppm CPPU, 10 ppm CPPU, a mixture of 10 ppm ABA and 5 ppm CPPU, a mixture of 30 ppm ABA and 5 ppm CPPU, a mixture of 10 ppm ABA and 10 ppm CPPU and a mixture of 30 ppm ABA and 10 ppm CPPU (n=8) were made using a tank sprayer at Feekes stage 11.0. Plants were then grown with no additional water for next 3-5 until drought stress conditions and water-deficit stress related phenotype was apparent. Plants were re-watered to bring soil moisture to saturation and grown under optimal conditions until physiological maturity. Plants were then destructively harvested and measured for spike weight, grain yield, yield per spike and total above ground biomass.
# Apogee wheat [3] = assay: Example 1: grain yield in Apogee wheat under water stress (greenhouse pots, spray at Feekes 11.0); settings: drought stress
# Description: 42 pots of Apogee wheat were grown in a greenhouse under ideal growing conditions. Specifically, wheat was planted in ProMix® growth media and grown for about-seven weeks in a growth cabinet at 24/18° C. day/night temperature under a 16/8 hour light/dark photoperiod. Next, spray applications of 0.025% v/v Latron B-1956® in water, 30 ppm ABA, 30 ppm 6BA, 10 ppm CPPU, a mixture of 30 ppm ABA and 30 ppm 6BA and a mixture of 30 ppm ABA and 10 ppm CPPU (n=7) were made using a tank sprayer at Feekes stage 11.0. Plants were then grown with no additional water for next 3-5 days until drought stress conditions and water-deficit stress-related phenotypes were apparent. Specifically, drought stress conditions are determined as when pots have lost 60-70% of stored soil water, as determined by determined gravimetrically by weighing pots, through evapotranspiration and water-deficit stress-related phenotypes include wilting and leaf-rolling. Plants were re-watered to bring soil moisture to saturation and subsequently grown under optimal conditions until physiological maturity. Plants were then destructively harvested and measured for spike weight, grain weight, yield per spike and harvest index. Harvest index is calculated by dividing pounds of grain by the total pounds of above ground biomass.
# as §1, §2
# rice [4] = assay: Example 5: grain yield in rice (spray at R6)
# Description: as §1, §2
# 32 pots of rice were grown in a greenhouse under ideal growing conditions. Specifically, rice was planted in growth media comprising sand and Pro-Mix® BX and grown for about 3-4 weeks in a growth cabinet at 24/18° C. day/night temperature under a 18/6 hour light/dark photoperiod. Next, spray applications of 0.025% v/v Latron B-1956® in water, 30 ppm ABA, 10 ppm CPPU, and a mixture of 30 ppm ABA and 10 ppm CPPU (n=8) were made using a tank sprayer at early grain filling stage (growth stage R6). Plants were then grown under ideal conditions for an additional 5-7 weeks. Plants were then destructively harvested and measured for yield of top six panicles, yield from other panicles (not top six panicles), yield of all panicles, yield per panicle and yield per top six panicles.
# Corn = assay: Example 7: grain yield in field corn, Seymour IL 2020
# Description: (§3) Corn was grown in the field in Seymour, IL in 2020. Spray applications of water, 2 g/HA ABA, 6 g/HA ABA and a mixture of 2 g/HA ABA and 2 g/HA 6BA (n=8) were made using a tank sprayer at the blister to milk stage (growth stage R2-R3). Plants were then grown until mature. Plants were then destructively harvested and measured for grain yield.
# Barley = assay: Example 9: grain yield in field barley, Argentina 2020
# Description: Barley was grown in the field in Pieres, Buenos Aires Province, Argentina from Jun. 15 to Dec. 30, 2020. 2 g/HA ABA, 6 g/HA ABA and mixtures of 2 g/HA ABA and 2 g/HA 6BA and 4 g/HA ABA and 2 g/HA 6BA (n=8) were made using a tank sprayer at the beginning of milk grains (growth stage Zadoks 7.2). Plants were then grown until mature. Plants were then destructively harvested and measured for grain yield.
# Apogee wheat [5] = assay: Example 2: grain yield in Apogee wheat under water stress; settings: 30 ppm spray; drought stress
# Description: as §1, §2
# Thirty-two pots of Apogee wheat were grown in a greenhouse under ideal growing conditions. Specifically, wheat was planted in ProMix® growth media and grown for about seven weeks in a growth cabinet at 24/18° C. day/night temperature under a 16/8 hour light/dark photoperiod. Next, spray applications of 0.025% v/v Latron B-1956® in water, 30 ppm ABA, 30 ppm 6BA, and a mixture of 30 ppm ABA and 30 ppm 6BA (n=8) were made using a tank sprayer at Feekes stage 11.0. Plants were then grown with no additional water for the next 3-5 days until drought stress conditions and water-deficit stress-related phenotypes were apparent. Plants were re-watered to bring soil moisture to saturation and grown under optimal conditions until physiological maturity. Plants were then destructively harvested and measured for shoot weight, spike weight, grain yield, yield per spike and total above ground biomass.
# Soybean = assay: Example 8: grain yield in field soybean, Seymour IL 2020
# Description: as §3, with “Soybean” for “Corn”, “beginning of seeding” for “blister to milk stage”, “R4 to R5).” for “R2-R3).”
# rice [6] = assay: Example 6: grain yield in rice (spray at R5 to R6); settings: 30 ppm spray at R5 to R6
# Description: as §1, §2
# 48 pots of rice were grown in a greenhouse under ideal growing conditions. Specifically, rice was planted in growth media comprising sand and Pro-Mix® BX and grown for about 3-4 weeks in a growth cabinet at 24/18° C. day/night temperature under a 18/6 hour light/dark photoperiod. Next, spray applications of 0.025% v/v Latron B-1956® in water, 30 ppm ABA, 30 ppm 6BA, 45 ppm 6BA, a mixture of 30 ppm ABA and 30 ppm 6BA, and a mixture of 30 ppm ABA and 45 ppm 6BA (n=8) were made using a tank sprayer at early grain filling stage (growth stage R5 to R6). Plants were then grown under ideal conditions for an additional 5-7 weeks. Plants were then destructively harvested and measured for yield of top six panicles, yield from other panicles (not top six panicles), yield of all panicles, yield per panicle and yield per top six panicles.
molecule,measurement,setting,value
"O=C(Nc1ccccc1)Nc1ccnc(Cl)c1 [CPPU, n-(2-chloro-4-pyridyl)-n′-phenylurea]",Grain Yield,Apogee wheat [1]; 10 ppm,8.28 grams
same,Spike Weight,Apogee wheat [1]; 10 ppm,11.86 grams
same,Total Above Ground Biomass,Apogee wheat [1]; 10 ppm,15.98 grams
same,Yield/Spike,Apogee wheat [1]; 10 ppm,0.95 grams
same,Grain Yield,Apogee wheat [2]; 5 ppm spray,6.20 grams
same,Spike Weight,Apogee wheat [2]; 5 ppm spray,8.57 grams
same,Total Above Ground Biomass,Apogee wheat [2]; 5 ppm spray,11.34 grams
same,Yield/Spike,Apogee wheat [2]; 5 ppm spray,0.98 grams
same,Grain Yield,Apogee wheat [2]; 10 ppm spray,6.32 grams
same,Spike Weight,Apogee wheat [2]; 10 ppm spray,8.12 grams
same,Total Above Ground Biomass,Apogee wheat [2]; 10 ppm spray,10.94 grams
same,Yield/Spike,Apogee wheat [2]; 10 ppm spray,1.00 grams
same,Grain Yield,Apogee wheat [3]; 10 ppm spray,9.69 grams
same,Harvest Index,Apogee wheat [3]; 10 ppm spray,0.56
same,Spike Weight,Apogee wheat [3]; 10 ppm spray,12.99 grams
same,Yield/Spike,Apogee wheat [3]; 10 ppm spray,1.34 grams
same,Yield of All,rice [4]; 10 ppm spray at R6,26.33 grams
same,Yield of Others,rice [4]; 10 ppm spray at R6,11.16 grams
same,Yield of Top 6,rice [4]; 10 ppm spray at R6,15.17 grams
same,Yield per Panicle,rice [4]; 10 ppm spray at R6,2.22 grams
same,Yield per Top 6,rice [4]; 10 ppm spray at R6,2.53 grams
(S)-abscisic acid [ABA],Grain Yield,Apogee wheat [1]; 30 ppm,8.49 grams
same,Spike Weight,Apogee wheat [1]; 30 ppm,11.60 grams
same,Total Above Ground Biomass,Apogee wheat [1]; 30 ppm,15.38 grams
same,Yield/Spike,Apogee wheat [1]; 30 ppm,1.04 grams
same,Grain Yield,Apogee wheat [2]; 10 ppm spray,6.95 grams
same,Spike Weight,Apogee wheat [2]; 10 ppm spray,9.22 grams
same,Total Above Ground Biomass,Apogee wheat [2]; 10 ppm spray,12.11 grams
same,Yield/Spike,Apogee wheat [2]; 10 ppm spray,1.08 grams
same,Grain Yield,Apogee wheat [2]; 30 ppm spray,6.72 grams
same,Spike Weight,Apogee wheat [2]; 30 ppm spray,8.90 grams
same,Total Above Ground Biomass,Apogee wheat [2]; 30 ppm spray,11.47 grams
same,Yield/Spike,Apogee wheat [2]; 30 ppm spray,1.06 grams
same,Grain Yield,Corn; 2 g/HA spray at R2-R3,225 bushels/acre
same,Grain Yield,Corn; 6 g/HA spray at R2-R3,234 bushels/acre
same,Grain Yield,Apogee wheat [3]; 30 ppm spray,10.24 grams
same,Harvest Index,Apogee wheat [3]; 30 ppm spray,0.55
same,Spike Weight,Apogee wheat [3]; 30 ppm spray,14.06 grams
same,Yield/Spike,Apogee wheat [3]; 30 ppm spray,1.40 grams
same,Grain Yield,Barley; 2 g/HA spray at Zadoks 7.2,5319
same,Grain Yield,Barley; 6 g/HA spray at Zadoks 7.2,5114
same,Grain Yield,Apogee wheat [5],12.12 grams
same,Shoot Weight,Apogee wheat [5],5.04 grams
same,Spike Weight,Apogee wheat [5],15.66 grams
same,Total Above Ground Biomass,Apogee wheat [5],20.70 grams
same,Yield/Spike,Apogee wheat [5],1.33 grams
same,Yield of All,rice [4]; 30 ppm spray at R6,28.47 grams
same,Yield of Others,rice [4]; 30 ppm spray at R6,12.72 grams
same,Yield of Top 6,rice [4]; 30 ppm spray at R6,15.75 grams
same,Yield per Panicle,rice [4]; 30 ppm spray at R6,2.34 grams
same,Yield per Top 6,rice [4]; 30 ppm spray at R6,2.63 grams
same,Grain Yield,Soybean; 2 g/HA spray at R4 to R5,96.57 bushels/acre
same,Grain Yield,Soybean; 6 g/HA spray at R4 to R5,93.80 bushels/acre
same,Yield of All,rice [6],23.70 grams
same,Yield of Others,rice [6],5.22 grams
same,Yield of Top 6,rice [6],19.14 grams
same,Yield per Panicle,rice [6],2.95 grams
same,Yield per Top 6,rice [6],3.19 grams
